Assay results taken from patent publication US6764829B2, “Nucleoside hydrolase and nucleoside phosphorylase detection kits, dipsticks and substrates” (Albert Einstein College of Medicine of Yeshiva University, priority 1996, dated 2004).
Like-named read-outs stand apart in the source and are kept apart here.

Key:
IAG-nucleoside hydrolase = target: T1, IAG-nucleoside hydrolase (Trypanosoma brucei, UniProt Q57ZL6); experiment: Comparison of β-D-ribofuranoside substrates with IAG-nucleoside hydrolase (Table 3); assay type: biochemical; details: for IAG NH rate: at 200 μM substrate
T1 sequence (Q57ZL6 1-327): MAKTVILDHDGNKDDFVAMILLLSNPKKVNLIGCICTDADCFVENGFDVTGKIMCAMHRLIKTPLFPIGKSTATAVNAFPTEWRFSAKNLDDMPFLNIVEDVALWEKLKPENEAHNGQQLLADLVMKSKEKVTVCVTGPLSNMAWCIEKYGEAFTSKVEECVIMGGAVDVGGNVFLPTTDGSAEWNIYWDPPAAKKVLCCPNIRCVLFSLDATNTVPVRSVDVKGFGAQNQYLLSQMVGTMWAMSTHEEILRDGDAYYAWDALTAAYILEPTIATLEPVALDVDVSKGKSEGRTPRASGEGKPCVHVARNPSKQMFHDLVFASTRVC
Experimental: (§1) The enzymes used were highly purified samples from Crithidia fasciculata (IU-nucleoside hydrolase) and Trypanosoma brucei brucei (IAG-nucleoside hydrolase), available as stock solutions of approximately 20 mg protein/mL.
(§2) Each reaction was conducted in a quartz cuvette with a 1 cm path length, placed in the observation chamber of a UV spectrophotometer, and in a total reaction volume of 600 μL. The temperature was adjusted by use of a circulating water bath, set so that the cuvette temperature equilibrated to 30° C. in about 5 minutes.
(§3) The β-D-ribofuranoside substrates were dissolved in aqueous buffer: 50 mM CHES for reactions at pH 10, 50 mM HEPES for reactions at pH 8. […] For the remaining reactions catalysed by IAG hydrolase, a single substrate concentration of between 100 and 300 μM was used.
(§4) The absorbance of each reaction mixture was monitored at or near the absorption maximum for the phenolic aglycon (as shown in Table 3). Monitoring began 5-10 minutes before the enzyme was added to determine if the substrate was stable under the reaction conditions.
(§5) Data were fitted to the Michaelis-Menton equation using kaleidagraph, and the resulting kinetic parameters along with other relevant data are summarized in Table 3.

IU-nucleoside hydrolase = target: T2, IU-nucleoside hydrolase (Crithidia fasciculata, UniProt Q27546); experiment: Comparison of β-D-ribofuranoside substrates with IU-nucleoside hydrolase (Table 3); assay type: biochemical; details: for Km: read-out: IU NH Km
T2 sequence (Q27546 1-315): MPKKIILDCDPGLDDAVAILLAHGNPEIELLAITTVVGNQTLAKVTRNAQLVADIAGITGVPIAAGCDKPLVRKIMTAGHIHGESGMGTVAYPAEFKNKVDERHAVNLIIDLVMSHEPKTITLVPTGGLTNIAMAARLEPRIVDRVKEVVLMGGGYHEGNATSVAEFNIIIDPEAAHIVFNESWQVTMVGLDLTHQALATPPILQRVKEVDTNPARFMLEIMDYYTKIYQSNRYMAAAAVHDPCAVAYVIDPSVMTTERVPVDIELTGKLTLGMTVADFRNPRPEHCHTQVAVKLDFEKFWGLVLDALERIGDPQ
Experimental: as §1, §2, §3, §4, §5

AMP nucleosidase = AMP nucleosidase (Escherichia coli, UniProt P0AE12); experiment: Kinetic parameters with nitrophenylriboside 5-phosphate and purine substrate (Table 1); assay type: biochemical, E coli
Sequence of AMP nucleosidase (P0AE12 whole entry): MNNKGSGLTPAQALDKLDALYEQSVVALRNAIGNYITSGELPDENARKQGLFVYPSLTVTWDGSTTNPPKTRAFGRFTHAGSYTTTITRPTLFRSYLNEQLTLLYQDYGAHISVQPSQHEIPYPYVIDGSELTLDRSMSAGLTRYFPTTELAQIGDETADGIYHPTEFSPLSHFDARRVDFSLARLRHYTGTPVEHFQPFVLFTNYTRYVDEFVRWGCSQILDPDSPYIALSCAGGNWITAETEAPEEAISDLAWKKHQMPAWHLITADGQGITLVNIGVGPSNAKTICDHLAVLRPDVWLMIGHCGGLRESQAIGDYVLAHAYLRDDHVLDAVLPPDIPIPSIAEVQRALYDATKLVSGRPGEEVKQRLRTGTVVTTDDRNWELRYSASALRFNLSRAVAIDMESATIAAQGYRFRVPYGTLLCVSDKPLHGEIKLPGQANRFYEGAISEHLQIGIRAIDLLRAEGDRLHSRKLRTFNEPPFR
Description: (§6) In this Example kinetic parameters for different enzymes were compared using nitrophenylriboside or a purine substrate. […] The E. coli and bovine spleen enzymes tested were ineffective in hydrolysing the substrate. The striking ability of one of the protozoan parasite enzymes to hydrolyse the substrate provides the basis for an assay for the protozoan parasites (see Example 22).

T. vaginalis = experiment: Hydrolysis of substrates by T. vaginalis extract; assay type: biochemical; details: Triton X-100 extract; determined as in Example 24
Experimental: T. vaginalis was grown for 2 days in TYM medium, harvested, and washed. […] The ability of the extract to hydrolyse substrates was determined as in Example 24. For 4-nitrophenyl β-D-ribofuranoside, the activity was 165 nmoles.min^−1 per 10^8 cells, corresponding to an activity for the enzyme of 9 nmoles.min^−1.(mg protein)^−1. For 4-pyridyl β-D-ribofuranoside, the activity was 74 nmoles.min^−1 per […] corresponding to an activity for the enzyme of 4 nmoles.min^−1.(mg protein)^−1.

[1] = system: Giardia intestinalis (Portland 1 strain); experiment: Hydrolysis of substrates by Giardia intestinalis supernatants; assay type: biochemical; details: 0.24 mM substrate, 50 mM HEPES pH 8
Experimental: Giardia intestinalis (Portland 1 strain) was grown for 2 days in TYI-33 medium supplemented with 5 mM arginine, harvested and washed. A suspension containing 2.91×10^8 cells of Giardia intestinalis in 1 mL of aqueous HEPES buffer (40 mM. pH 7) was mixed with 1 mL of aqueous HEPES buffer (40 mM, pH 7) containing 0.1 mM protease inhibitor E-64 and sonicated (Branson sonicator, duty cycle 40, output 2.5), for 2-3 min in ice. The suspension was then centrifuged in a Beckman microfuge for 10 mins at 4° C., and the supernatant decanted.
A second suspension of 2.91×10^8 cells of Giardia intestinalis in 1 mL of aqueous HEPES buffer (40 mM, pH 7) was mixed with 1 mL of 0.5% aqueous Triton X-100, left at 4° C. overnight, and the supernatant was decanted.
Aliquots (between 2 and 100 μL) of each of these supernatants were made up to a volume of 1 mL of water containing 50 mM HEPES buffer at pH 8, 0.24 mM 4-nitrophenyl β-D-ribofuranoside or 4-pyridyl β-D-ribofuranoside. The release of the aglycon was monitored by absorption spectrometry at 400 nm or 253 nm, respectively.
Protein was determined by Lowry method (ie Folin reaction).

[2] = substrate: O=[N+]([O-])c1ccc(O[C@@H]2O[C@H](CO)[C@@H](O)[C@H]2O)cc1; experiment: Kinetic parameters (phosphorolysis) with nitrophenylriboside and purine substrate (Table 1); assay type: biochemical, bovine; details: other: nitrophenylriboside as substrate, pH 8.0 in 50 mM HEPES, 30° C., 3 mM phosphate
Description: as §6

[3] = substrate: O=[N+]([O-])c1ccc(O[C@@H]2O[C@H](CO)[C@@H](O)[C@H]2O)cc1; experiment: Comparison of β-D-ribofuranoside substrates with IAG-nucleoside hydrolase (Table 3); assay type: biochemical, Trypanosoma brucei brucei; details: other: At pH 10, 30.0 °C
Experimental: as §1, §2, §3, §4, §5

[4] = substrate: OC[C@H]1O[C@@H](Oc2ccncc2)[C@H](O)[C@@H]1O; experiment: as above; assay type: biochemical, Trypanosoma brucei brucei; details: other: At pH 10, 30.0 °C
Experimental: as §1, §2, §3, §4, §5

[5] = substrate: O=[N+]([O-])c1ccc(O[C@@H]2O[C@H](CO)[C@@H](O)[C@H]2O)cc1; experiment: Kinetic parameters with nitrophenylriboside and purine substrate (Table 1); assay type: biochemical, Trypanosoma brucei brucei; details: other: nitrophenylriboside as substrate, pH 8.0 in 50 mM HEPES, 30° C.
Description: as §6

[6] = nitrophenylriboside 5-phosphate as substrate, pH 8.0 in 50 mM HEPES, 30° C., MgATP 100 μM

Cc1cc(=O)oc2cc(O[C@@H]3O[C@H](CO)[C@@H](O)[C@H]3O)ccc12 [Example 10, 4-methylcoumarin-7-yl β-D-ribofuranoside]
IAG NH rate (IAG-nucleoside hydrolase; pH 10.0): 0.003 min⁻¹ | substrate quality in words (IU-nucleoside hydrolase): good substrates

nitrophenylriboside 5-phosphate
kcat/Km ratio (AMP nucleosidase; kcat/Km for the nitrophenyl substrate to that for AMP): 3 × 10^−7 | Km (AMP nucleosidase; [6]): 6250 µM | kcat (AMP nucleosidase; [6]): 0.0004 s⁻¹

NC(=O)c1ccc(O[C@@H]2O[C@H](CO)[C@@H](O)[C@H]2O)nc1 [Example 19, 3-carboxamido-6-pyridyl β-D-ribofuranoside]
substrate quality in words (IAG-nucleoside hydrolase): good substrates | IAG NH rate (IAG-nucleoside hydrolase; pH 8.0): >100 min⁻¹ | IAG NH rate (IAG-nucleoside hydrolase; pH 10.0): 24 min⁻¹ | substrate quality in words (IU-nucleoside hydrolase): good substrates | IU NH kcat (IU-nucleoside hydrolase; At pH 10, 30° C.): 141 s⁻¹ | Km (IU-nucleoside hydrolase; At pH 10, 30° C.): 369 µM

O=C1CCCc2c(O[C@@H]3O[C@H](CO)[C@@H](O)[C@H]3O)cccc21 [Example 5, 1-tetralone-5-yl β-D-ribofuranoside]
IAG NH rate (IAG-nucleoside hydrolase; pH 8.0): <0.01 min⁻¹ | IAG NH rate (IAG-nucleoside hydrolase; pH 10.0): <0.01 min⁻¹ | IU NH kcat (IU-nucleoside hydrolase; At pH 10, at 200 μM): 0.5 s⁻¹

Nc1cccc(O[C@@H]2O[C@H](CO)[C@@H](O)[C@H]2O)c1 [Example 4, 3-aminophenyl β-D-ribofuranoside]
IAG NH rate (IAG-nucleoside hydrolase; pH 10.0): <0.02 min⁻¹ | Ki (IU-nucleoside hydrolase): 72 µM | IU NH kcat (IU-nucleoside hydrolase; At pH 10, at 1240 μM): 0.7 s⁻¹

O=Cc1ccc(O[C@@H]2O[C@H](CO)[C@@H](O)[C@H]2O)cc1 [Example 20, 4-formylphenyl β-D-ribofuranoside]
IAG NH rate (IAG-nucleoside hydrolase; pH 10.0): 0.01 min⁻¹

OC[C@H]1O[C@@H](Oc2ccncc2)[C@H](O)[C@@H]1O [Example 12, 4-pyridyl β-D-ribofuranoside]
substrate quality in words (IAG-nucleoside hydrolase): good substrates | substrate quality in words (IAG-nucleoside hydrolase; listed as 4-pyridyl riboside): substantially greater activity | activity for the enzyme (T. vaginalis): 4 nmoles.min^−1.(mg protein)^−1 | activity per cells (T. vaginalis): 74 nmoles.min^−1 per 10^−8 cells | substrate quality in words (IU-nucleoside hydrolase): good substrates | substrate quality in words (IU-nucleoside hydrolase; listed as 4-pyridyl riboside): lower activity | activity per cells [1]: 210 nmoles.min^−1 per 10^8 cells | activity for the enzyme ([1]; protein by Lowry method): 31 nmoles.min^−1.(mg protein)^−1

O=[N+]([O-])c1ccccc1O[C@@H]1O[C@H](CO)[C@@H](O)[C@H]1O [Example 9, 2-nitrophenyl β-D-ribofuranoside]
IAG NH rate (IAG-nucleoside hydrolase; pH 10.0): 0.15 min⁻¹ | substrate quality in words (IU-nucleoside hydrolase): good substrates

OC[C@H]1O[C@@H](Oc2cccc3ncccc23)[C@H](O)[C@@H]1O [Example 14, 5-quinolyl β-D-ribofuranoside]
IAG NH rate (IAG-nucleoside hydrolase; pH 8.0): 0.16 min⁻¹ | IAG NH rate (IAG-nucleoside hydrolase; pH 10.0): <0.01 min⁻¹

OC[C@H]1O[C@@H](Oc2cccnc2)[C@H](O)[C@@H]1O [Example 11, 3-pyridyl β-D-ribofuranoside]
IAG NH rate (IAG-nucleoside hydrolase; pH 10.0): 0.01 min⁻¹

β-D-ribofuranoside of Luminol [Example 15]
IAG NH rate (IAG-nucleoside hydrolase; pH 8.0): <0.01 min⁻¹ | IAG NH rate (IAG-nucleoside hydrolase; pH 10.0): <0.03 min⁻¹ | IU NH kcat (IU-nucleoside hydrolase; At pH 10, 30° C.): 163 s⁻¹ | Km (IU-nucleoside hydrolase; At pH 10, 30° C.): 133 µM

O=C1OC(c2ccc(O)cc2)(c2ccc(O[C@@H]3O[C@H](CO)[C@@H](O)[C@H]3O)cc2)c2ccccc21 (stereo partly drawn) [Example 7, 3-(4-hydroxyphenyl)-1(3H)-isobenzofuranone-3-(phen-4-yl) β-D-ribofuranoside]
IAG NH rate (IAG-nucleoside hydrolase; pH 8.0): <0.01 min⁻¹ | IAG NH rate (IAG-nucleoside hydrolase; pH 10.0): <0.01 min⁻¹ | IU NH kcat (IU-nucleoside hydrolase; At pH 10, at 200 μM): 10 at sec^−1

O=C(Nc1cccc(O[C@@H]2O[C@H](CO)[C@@H](O)[C@H]2O)c1)C(F)(F)F [Example 3, 3-trifluoroacetamidophenyl β-D-ribofuranoside]
Ki (IU-nucleoside hydrolase): 27.7 µM

OC[C@H]1O[C@@H](Oc2cccc3ccccc23)[C@H](O)[C@@H]1O [Example 2, α-naphthyl β-D-ribofuranoside]
IAG NH rate (IAG-nucleoside hydrolase; pH 10.0): <0.05 min⁻¹ | Ki (IU-nucleoside hydrolase): 7.3 µM | IU NH kcat (IU-nucleoside hydrolase; At pH 10, at 250 μM): .009 s⁻¹

Nc1ccc(O[C@@H]2O[C@H](CO)[C@@H](O)[C@H]2O)cc1 [Example 6, p-aminophenyl β-D-ribofuranoside]
IU NH kcat (IU-nucleoside hydrolase; At pH 10, 30° C.): <0.01 s⁻¹

B1: Purine nucleoside phosphorylase (Bos taurus) (protein)
chain: MANGYTYEDYQDTAKWLLSHTEQRPQVAVICGSGLGGLVNKLTQAQTFDYSEIPNFPESTVPGHAGRLVFGILNGRACVMMQGRFHMYEGYPFWKVTFPVRVFRLLGVETLVVTNAAGGLNPNFEVGDIMLIRDHINLPGFSGENPLRGPNEERFGVRFPAMSDAYDRDMRQKAHSTWKQMGEQRELQEGTYVMLGGPNFETVAECRLLRNLGADAVGMSTVPEVIVARHCGLRVFGFSLITNKVIMDYESQGKANHEEVLEAGKQAAQKLEQFVSLLMASIPVSGHTG
notes: The E. coli and bovine spleen enzymes tested; from tissue; host or cells: bovine spleen
Km [2]: 224 µM | kcat [2]: 0.0002 s⁻¹ | kcat/Km [2]: 0.89 M⁻¹ s⁻¹

B2: IAG-nucleoside hydrolase (Trypanosoma brucei brucei TREU927) (protein)
chain: MAKTVILDHDGNKDDFVAMILLLSNPKKVNLIGCICTDADCFVENGFDVTGKIMCAMHRLIKTPLFPIGKSTATAVNAFPTEWRFSAKNLDDMPFLNIVEDVALWEKLKPENEAHNGQQLLADLVMKSKEKVTVCVTGPLSNMAWCIEKYGEAFTSKVEECVIMGGAVDVGGNVFLPTTDGSAEWNIYWDPPAAKKVLCCPNIRCVLFSLDATNTVPVRSVDVKGFGAQNQYLLSQMVGTMWAMSTHEEILRDGDAYYAWDALTAAYILEPTIATLEPVALDVDVSKGKSEGRTPRASGEGKPCVHVARNPSKQMFHDLVFASTRVC
Km [3]: 529 µM | kcat [3]: 0.00317 s⁻¹ | Km [4]: 306 µM | kcat [4]: 12 s⁻¹ | Km [5]: 560 µM | kcat [5]: 0.82 s⁻¹ | kcat/Km [5]: 1500 M⁻¹ s⁻¹
